In US12371428B2 (Exelixis, Inc., priority 2019, dated 2025):

What was measured:
[1] = molecular target: Human MER (residues 528-999) (Homo sapiens (Human), UniProt Q12866); experiment: Human Mer kinase assay, HTRF KinEase (Example C-2); type: biochemical; conditions: protocol of Example C-2 (other compounds)
Outline: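 HTRF KinEase TK assay with MER 528-999 (1 ng/well) in enzymatic buffer plus 5 mM MgCl2 and 1 mM DTT, biotinylated peptide substrate and ATP at Km (40 μM), 3% DMSO final, 60 min at room temperature. Stopped with EDTA detection mix (SA-XL665, TK antibody-Eu3+), read at 665/620 nm after 60 min; IC50 from 10-point 4-parameter fit, normalized to DMSO and 1 μM reference.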

[2] = molecular target: Met (phospho-Met, HGF-stimulated PC-3 prostate cancer cells) (Homo sapiens (Human), UniProt P08581); experiment: Met autophosphorylation ELISA in PC-3 cells (Example F); type: cell-based; conditions: cellular activity; Met autophosphorylation ELISA in PC-3 cells; read-out: c-Met IC50
Outline: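 PC-3 cells, serum-starved 3 h, were treated with compounds (8-point dose curve, 0.3% DMSO final) for 1 h, then stimulated with 100 ng/mL recombinant human HGF for 10 min. Lysate phospho-Met (panTyr) was quantified by sandwich ELISA; IC50 from 4-parameter logistic fit.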

[3] = molecular target: Human MET (residues 956-1390) (Homo sapiens (Human), UniProt P08581); experiment: Human Met kinase assay, HTRF KinEase (Example D-2); type: biochemical; conditions: protocol of Example D-2 (other compounds); read-out: c-Met IC50
Outline: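 HTRF KinEase assay on MET residues 956-1390 (0.1 ng/well) in buffer with 5 mM MgCl2, 1 mM DTT and 1 mM MnCl2, with biotinylated peptide substrate, ATP at Km, 10 compound concentrations and 3% DMSO final, run 40 min at room temperature. The […] signal was normalized to DMSO and to 1 μM reference compound, and IC50 came from a 4-parameter logistic fit.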

[4] = molecular target: Mer (phospho-Mer, MERTK-transfected 293A cells) (Homo sapiens (Human), UniProt Q12866); experiment: Mer autophosphorylation ELISA in transient transfected 293A cells (Example H); type: cell-based; conditions: cellular activity; Mer autophosphorylation ELISA in transient transfected 293A cells
Outline: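 MERTK-transfected 293A; 8-pt dose, 1 h, serum-free, 0.3% DMSO. Cold lysis with orthovanadate and protease/phosphatase inhibitors. Phospho-Mer by DuoSet IC ELISA vs phospho-Mer standard. IC50: 4-PL fit; DMSO = 100%, reference inhibitor = 0%.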

Sequence of Human MER (residues 528-999) (Q12866 528-999): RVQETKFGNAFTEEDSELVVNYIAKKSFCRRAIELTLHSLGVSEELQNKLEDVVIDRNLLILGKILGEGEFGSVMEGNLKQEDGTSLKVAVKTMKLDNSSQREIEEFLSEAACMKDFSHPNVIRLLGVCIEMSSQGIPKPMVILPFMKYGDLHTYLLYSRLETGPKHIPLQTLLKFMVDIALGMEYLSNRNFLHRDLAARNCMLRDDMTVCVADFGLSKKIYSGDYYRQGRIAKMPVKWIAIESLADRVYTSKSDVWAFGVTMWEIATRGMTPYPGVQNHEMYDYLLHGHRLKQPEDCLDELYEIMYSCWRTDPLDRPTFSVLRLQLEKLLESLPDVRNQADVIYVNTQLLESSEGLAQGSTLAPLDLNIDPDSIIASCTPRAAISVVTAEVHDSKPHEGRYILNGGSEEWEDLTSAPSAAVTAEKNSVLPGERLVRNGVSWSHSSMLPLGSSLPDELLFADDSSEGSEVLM
Sequence of Human MET (residues 956-1390) (P08581 956-1390): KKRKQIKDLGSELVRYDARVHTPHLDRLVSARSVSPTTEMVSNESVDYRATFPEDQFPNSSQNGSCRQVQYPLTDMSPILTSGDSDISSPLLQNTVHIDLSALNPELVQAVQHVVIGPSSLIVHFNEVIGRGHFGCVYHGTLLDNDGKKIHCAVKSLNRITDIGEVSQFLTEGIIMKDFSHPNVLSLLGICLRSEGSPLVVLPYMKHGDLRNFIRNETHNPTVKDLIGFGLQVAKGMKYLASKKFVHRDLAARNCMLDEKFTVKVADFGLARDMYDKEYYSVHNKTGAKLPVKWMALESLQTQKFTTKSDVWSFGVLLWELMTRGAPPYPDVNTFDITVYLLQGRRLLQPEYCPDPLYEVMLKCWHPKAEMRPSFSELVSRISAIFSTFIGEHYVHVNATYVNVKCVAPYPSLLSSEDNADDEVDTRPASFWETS
Sequence of Met (phospho-Met, HGF-stimulated PC-3 prostate cancer cells) (P08581 25-1390): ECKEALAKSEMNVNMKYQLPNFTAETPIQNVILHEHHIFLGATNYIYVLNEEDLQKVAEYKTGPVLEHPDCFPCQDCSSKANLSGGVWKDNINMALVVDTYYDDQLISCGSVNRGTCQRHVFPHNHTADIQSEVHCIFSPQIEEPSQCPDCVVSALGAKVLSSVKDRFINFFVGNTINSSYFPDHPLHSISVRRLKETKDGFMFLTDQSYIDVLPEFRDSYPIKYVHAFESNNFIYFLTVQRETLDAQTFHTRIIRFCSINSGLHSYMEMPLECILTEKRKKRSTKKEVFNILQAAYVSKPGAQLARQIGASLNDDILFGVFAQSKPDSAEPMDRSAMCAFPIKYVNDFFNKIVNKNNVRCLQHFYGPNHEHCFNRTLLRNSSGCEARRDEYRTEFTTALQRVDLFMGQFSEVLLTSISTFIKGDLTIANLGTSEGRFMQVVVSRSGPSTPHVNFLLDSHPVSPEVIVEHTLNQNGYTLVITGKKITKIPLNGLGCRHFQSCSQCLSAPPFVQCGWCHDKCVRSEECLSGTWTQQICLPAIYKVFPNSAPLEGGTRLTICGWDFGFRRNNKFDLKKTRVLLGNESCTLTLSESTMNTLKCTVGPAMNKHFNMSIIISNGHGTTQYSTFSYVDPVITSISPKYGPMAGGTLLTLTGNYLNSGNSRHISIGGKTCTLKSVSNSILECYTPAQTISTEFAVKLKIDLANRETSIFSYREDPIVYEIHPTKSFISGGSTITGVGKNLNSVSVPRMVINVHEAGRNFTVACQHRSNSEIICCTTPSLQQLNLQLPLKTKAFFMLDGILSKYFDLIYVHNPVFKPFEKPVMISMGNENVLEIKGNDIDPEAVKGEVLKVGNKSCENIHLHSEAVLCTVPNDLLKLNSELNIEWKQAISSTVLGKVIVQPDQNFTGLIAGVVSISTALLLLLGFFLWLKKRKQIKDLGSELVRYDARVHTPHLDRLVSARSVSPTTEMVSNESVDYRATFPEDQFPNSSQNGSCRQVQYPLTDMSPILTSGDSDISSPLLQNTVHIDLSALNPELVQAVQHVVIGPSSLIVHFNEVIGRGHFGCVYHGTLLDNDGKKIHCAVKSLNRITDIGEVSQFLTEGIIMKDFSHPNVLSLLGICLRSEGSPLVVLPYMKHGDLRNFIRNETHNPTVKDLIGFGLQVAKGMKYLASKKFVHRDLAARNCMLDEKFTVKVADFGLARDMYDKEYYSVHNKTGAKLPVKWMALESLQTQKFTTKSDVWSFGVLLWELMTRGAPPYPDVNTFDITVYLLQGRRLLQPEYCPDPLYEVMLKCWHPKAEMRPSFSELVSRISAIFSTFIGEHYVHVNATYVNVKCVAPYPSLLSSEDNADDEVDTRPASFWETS
Sequence of Mer (phospho-Mer, MERTK-transfected 293A cells) (Q12866 21-999): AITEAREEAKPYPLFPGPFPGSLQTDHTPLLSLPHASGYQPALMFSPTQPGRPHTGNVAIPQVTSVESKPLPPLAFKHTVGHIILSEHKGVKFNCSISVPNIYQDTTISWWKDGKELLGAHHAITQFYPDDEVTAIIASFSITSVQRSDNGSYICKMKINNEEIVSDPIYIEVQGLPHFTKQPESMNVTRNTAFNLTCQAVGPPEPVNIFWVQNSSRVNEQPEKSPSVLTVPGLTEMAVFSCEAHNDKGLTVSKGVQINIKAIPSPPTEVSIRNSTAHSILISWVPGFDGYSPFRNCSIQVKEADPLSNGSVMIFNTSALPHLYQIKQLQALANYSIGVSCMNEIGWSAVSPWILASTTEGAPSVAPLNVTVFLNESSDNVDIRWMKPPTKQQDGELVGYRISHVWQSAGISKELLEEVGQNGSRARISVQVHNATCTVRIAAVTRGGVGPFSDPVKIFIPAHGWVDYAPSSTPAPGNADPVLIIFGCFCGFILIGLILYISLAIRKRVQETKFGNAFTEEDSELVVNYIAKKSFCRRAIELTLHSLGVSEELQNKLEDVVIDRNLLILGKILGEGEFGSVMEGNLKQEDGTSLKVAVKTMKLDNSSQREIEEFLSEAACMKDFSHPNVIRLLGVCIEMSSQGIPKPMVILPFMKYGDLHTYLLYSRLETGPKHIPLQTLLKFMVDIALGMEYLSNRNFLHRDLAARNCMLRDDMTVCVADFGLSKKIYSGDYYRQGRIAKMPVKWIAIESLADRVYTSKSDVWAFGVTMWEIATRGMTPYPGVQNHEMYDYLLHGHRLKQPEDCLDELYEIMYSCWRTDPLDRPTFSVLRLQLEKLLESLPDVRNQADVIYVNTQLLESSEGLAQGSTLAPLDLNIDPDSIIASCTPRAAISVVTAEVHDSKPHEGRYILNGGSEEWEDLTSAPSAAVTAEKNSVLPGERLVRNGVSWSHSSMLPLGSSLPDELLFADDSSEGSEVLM

| SMILES | IC50 [1] | IC50 [2] | IC50 [3] | IC50 [4] |
| --- | --- | --- | --- | --- |
| Cc1nc(C)c(-c2ccc(F)cc2)c(O)c1C(=O)Nc1ccc(Oc2ccnc3cc(OCc4ccccc4)cnc23)c(F)c1 [Compound 277, 5-(4-Fluorophenyl)-N-[3-fluoro-4-[(7-phenylmethoxy-1,5-naphthyridin-4-yl)oxy]phenyl]-4-hydroxy-2,6-dimethylpyridine-3-carboxamide] | < 100 nM | < 100 nM | < 100 nM | < 100 nM |
| COc1ccc2nccc(Oc3ccc(NC(=O)c4ncc(C)n(-c5ccc(F)cc5)c4=O)cc3F)c2n1 [Compound 264, N-[3-Fluoro-4-[(6-methoxy-1,5-naphthyridin-4-yl)oxy]phenyl]-4-(4-fluorophenyl)-5-methyl-3-oxopyrazine-2-carboxamide] | < 100 nM | < 100 nM | < 100 nM | < 100 nM |
| COc1ccc2nccc(Oc3ccc(NC(=O)c4ncc(C)n(-c5ccc(F)cc5C)c4=O)cc3F)c2n1 [Compound 394, N-[3-fluoro-4-[(6-methoxy-1,5-naphthyridin-4-yl)oxy]phenyl]-4-(4-fluoro-2-methylphenyl)-5-methyl-3-oxopyrazine-2-carboxamide] | < 100 nM | < 100 nM | < 100 nM | < 100 nM |
| CCn1cc(C(=O)Nc2ccc(Oc3ccnc4cc(OC)c(OC)nc34)cc2)c(=O)c(-c2ccc(F)cc2C)c1CO [Compound 284, N-[4-[(6,7-Dimethoxy-1,5-naphthyridin-4-yl)oxy]phenyl]-1-ethyl-5-(4-fluoro-2-methylphenyl)-6-(hydroxymethyl)-4-oxopyridine-3-carboxamide] | < 100 nM | < 100 nM | < 100 nM | < 100 nM |
| COc1ccc2nccc(Oc3ccc(NC(=O)c4c(C)nc(C)c(-c5ccc(F)cc5)c4O)cc3F)c2c1 [Compound 345, N-[3-fluoro-4-(6-methoxyquinolin-4-yl)oxyphenyl]-5-(4-fluorophenyl)-4-hydroxy-2,6-dimethylpyridine-3-carboxamide] | < 100 nM | < 100 nM | < 100 nM | < 100 nM |
| C=C(C)c1cc(C(=O)Nc2ccc(Oc3ccnc4cc(OC)c(OC)nc34)c(F)c2)c(=O)n(-c2ccc(F)cc2)c1C [Compound 367, N-[4-[(6,7-dimethoxy-1,5-naphthyridin-4-yl)oxy]-3-fluorophenyl]-1-(4-fluorophenyl)-6-methyl-2-oxo-5-prop-1-en-2-ylpyridine-3-carboxamide] | < 100 nM | < 100 nM | 100 to 300 nM | < 100 nM |
| Cc1ccc(C(=O)Nc2ccc(Oc3ccnc4ccc(OCCN5CCOCC5)nc34)c(F)c2)c(=O)n1-c1ccc(F)cc1 [Compound 351, N-[3-fluoro-4-[[6-(2-morpholin-4-ylethoxy)-1,5-naphthyridin-4-yl]oxy]phenyl]-1-(4-fluorophenyl)-6-methyl-2-oxopyridine-3-carboxamide] | < 100 nM | < 100 nM | < 100 nM | < 100 nM |
| CCOc1c(C(=O)Nc2ccc(Oc3ccnc4cc(OC)c(OC)nc34)c(F)c2)c(=O)c(-c2ccc(F)cc2)c(C)n1C [Compound 369, N-[4-[(6,7-dimethoxy-1,5-naphthyridin-4-yl)oxy]-3-fluorophenyl]-2-ethoxy-5-(4-fluorophenyl)-1,6-dimethyl-4-oxopyridine-3-carboxamide] | < 100 nM | < 100 nM | > 300 nM | < 100 nM |
| COc1cc2nccc(Oc3ccc(NC(=O)c4c(C)cc(C)n(-c5ccc(F)cc5C)c4=O)cc3F)c2nc1OC [Compound 298, N-[4-[(6,7-Dimethoxy-1,5-naphthyridin-4-yl)oxy]-3-fluorophenyl]-1-(4-fluoro-2-methylphenyl)-4,6-dimethyl-2-oxopyridine-3-carboxamide] | < 100 nM | < 100 nM | 100 to 300 nM | < 100 nM |
| COc1cc2nccc(Oc3c(F)cc(NC(=O)c4cn(C)c(C)c(-c5ccc(F)cc5)c4=O)cc3F)c2nc1OC [Compound 392, N-[4-[(6,7-dimethoxy-1,5-naphthyridin-4-yl)oxy]-3,5-difluorophenyl]-5-(4-fluorophenyl)-1,6-dimethyl-4-oxopyridine-3-carboxamide] | < 100 nM | < 100 nM | < 100 nM | < 100 nM |
| COc1ccc2nccc(Oc3ccc(NC(=O)c4nccn(-c5ccc(F)cc5)c4=O)cc3F)c2n1 [Compound 380, N-[3-fluoro-4-[(6-methoxy-1,5-naphthyridin-4-yl)oxy]phenyl]-4-(4-fluorophenyl)-3-oxopyrazine-2-carboxamide] | < 100 nM | < 100 nM | < 100 nM | < 100 nM |
| COc1cc2nccc(Oc3ccc(NC(=O)C4=C5CCCN5CC(c5ccc(F)cc5)C4=O)cc3F)c2nc1OC (single isomer, unassigned; enantiomer 1) [Compound 374, N-[4-[(6,7-dimethoxy-1,5-naphthyridin-4-yl)oxy]-3-fluorophenyl]-6-(4-fluorophenyl)-7-oxo-2,3,5,6-tetrahydro-1H-indolizine-8-carboxamide, enantiomer 1] | < 100 nM | < 100 nM | < 100 nM | < 100 nM |
| Cc1ncc(C(=O)Nc2ccc(Oc3ccnc4ccc(OCCN5CCOCC5)nc34)c(F)c2)c(O)c1-c1ccc(F)cc1 [Compound 352, N-[3-fluoro-4-[[6-(2-morpholin-4-ylethoxy)-1,5-naphthyridin-4 yl]oxy]phenyl]-5-(4-fluorophenyl)-4-hydroxy-6-methylpyridine-3-carboxamide] | < 100 nM | < 100 nM | < 100 nM | < 100 nM |

More lines, now with the values ahead:

| IC50 [1] | IC50 [2] | IC50 [3] | IC50 [4] | SMILES |
| --- | --- | --- | --- | --- |
| < 100 nM | < 100 nM | 100 to 300 nM | < 100 nM | COc1ccc2nccc(Oc3ccc(NC(=O)c4c(C)ccn(-c5ccc(F)cc5)c4=O)cc3F)c2n1 [Compound 287, N-[3-Fluoro-4-[(6-methoxy-1,5-naphthyridin-4-yl)oxy]phenyl]-1-(4-fluorophenyl)-4-methyl-2-oxopyridine-3-carboxamide] |
| < 100 nM | < 100 nM | < 100 nM | < 100 nM | COc1ccc2nccc(Oc3ccc(NC(=O)c4ccc(C)n(-c5ccc(F)cc5)c4=O)cc3)c2n1 [Compound 343, 1-(4-fluorophenyl)-N-[4-[(6-methoxy-1,5-naphthyridin-4-yl)oxy]phenyl]-6-methyl-2-oxopyridine-3-carboxamide] |
| < 100 nM | 100 to 300 nM | 100 to 300 nM | < 100 nM | COc1ccc2nccc(Oc3ccc(NC(=O)c4ccc(C)n(-c5ccc(F)cc5C)c4=O)cc3)c2n1 [Compound 276, 1-(4-Fluoro-2-methylphenyl)-N-[4-[(6-methoxy-1,5-naphthyridin-4-yl)oxy]phenyl]-6-methyl-2-oxopyridine-3-carboxamide] |
| < 100 nM | < 100 nM | 100 to 300 nM | < 100 nM | COc1cnc2c(Oc3ccc(NC(=O)c4c(C)ccn(-c5ccc(F)cc5)c4=O)cc3)ccnc2c1 [Compound 300, 1-(4-Fluorophenyl)-N-[4-[(7-methoxy-1,5-naphthyridin-4-yl)oxy]phenyl]-4-methyl-2-oxopyridine-3-carboxamide] |
| < 100 nM | < 100 nM | < 100 nM | < 100 nM | COc1cnc2c(Oc3ccc(NC(=O)c4c(C)cc(C)n(-c5ccc(F)cc5)c4=O)cc3)ccnc2c1 [Compound 289, 1-(4-Fluorophenyl)-N-[4-[(7-methoxy-1,5-naphthyridin-4-yl)oxy]phenyl]-4,6-dimethyl-2-oxopyridine-3-carboxamide] |
| < 100 nM | < 100 nM | < 100 nM | < 100 nM | COc1cnc2c(Oc3ccc(NC(=O)c4ncc(C)n(-c5ccc(F)cc5)c4=O)cc3)ccnc2c1 [Compound 263, 4-(4-Fluorophenyl)-N-[4-[(7-methoxy-1,5-naphthyridin-4-yl)oxy]phenyl]-5-methyl-3-oxopyrazine-2-carboxamide] |
| < 100 nM | < 100 nM | < 100 nM | < 100 nM | COc1cnc2c(Oc3ccc(NC(=O)c4cnc(C)n(-c5ccc(F)cc5)c4=O)cc3)ccnc2c1 [Compound 266, 1-(4-Fluorophenyl)-N-[4-[(7-methoxy-1,5-naphthyridin-4-yl)oxy]phenyl]-2-methyl-6-oxopyrimidine-5-carboxamide] |
| < 100 nM | < 100 nM | < 100 nM | < 100 nM | COc1cnc2c(Oc3ccc(NC(=O)c4c(C)ccn(-c5ccc(F)cc5)c4=O)cc3F)ccnc2c1 [Compound 294, N-[3-Fluoro-4-[(7-methoxy-1,5-naphthyridin-4-yl)oxy]phenyl]-1-(4-fluorophenyl)-4-methyl-2-oxopyridine-3-carboxamide] |
